Laboratory results reported in US20240307350A1, “5-METHOXY-N,N-DIMETHYLTRYPTAMINE (5-MEO-DMT) FOR TREATING DEPRESSION” (GH RESEARCH IRELAND LIMITED, priority 2019, published 2024).
Like-named read-outs stand apart in the source and are kept apart here.

How the values were obtained:
[1] = system: patients with treatment-resistant major depressive disorder; assay: Clinical trial of inhaled 5-MeO-DMT in treatment-resistant major depressive disorder: safety and tolerability; type: in vivo, human; settings: for Reported adverse events: 12 mg inhaled
Description: A clinical trial was performed in which 5-MeO-DMT free base (purity not less than 99%) was administered to patients with treatment-resistant major depressive disorder (TRD). The objectives of the study were to assess the safety and tolerability, the dose-related psychedelic effects and the effects on various measures of depression of single-day dosing of 5-MeO-DMT. The trial was reviewed and approved by the relevant national competent authority and local medical ethics committee. Patients recruited into the trial had to meet the Diagnostic and Statistical Manual of Mental Disorders-Fifth Edition (DSM-5) diagnostic criteria for single-episode or recurrent major depressive disorder and had to be treatment-resistant, both aspects as evaluated by a psychiatrist or registered psychologist. Patients who were using any psychoactive medication or substance (such as anti-depressive medication) had to discontinue such medication or substance and had to observe a wash-out period before the 5-MeO-DMT administration. On the administration day, a single dose of 12 mg 5-MeO-DMT was administered to the patients via a single inhalation as described in Example 1A. Patients were closely monitored for 3.5 hours after administration, with additional follow-up visits 1 day and 7 days after dosing. Various safety related measures (e.g., adverse event reporting, safety laboratory analyses, vital signs, electrocardiogram (ECG), Clinician Administered Dissociative States Scale (CADSS), Psychomotor Vigilance Test (PVT), Digit Symbol Substitution Test (DSST)), measures of the intensity of the psychedelic effects (e.g., Peak Psychedelic Experience Questionnaire (PPEQ), Altered States of Consciousness (ASC) Questionnaire, Mystical Experience Questionnaire (MEQ30), subjective description of the psychedelic experience), measures of depression severity (Montgomery-Åsberg Depression Rating Scale (MADRS), Patient's Global Impression of Severity scale (PGI-S), Patient's Global Impression of Improvement scale (PGI-I)), and additional psychological measures (e.g., Columbia-Suicide Severity Rating Scale (C-SSRS), Brief Psychiatric Rating Scale (BPRS)) were recorded at different time points. Psychological support via a psychologist and/or psychiatrist was available to the patients throughout the study, but no specific psychotherapy was applied, and no additional psychoactive medication was provided.
Two patients with major depressive disorder diagnosed by a psychiatrist according to DSM-5 diagnostic criteria were recruited into the study (Example 2, Table 1). The patients were considered treatment-resistant because they had not shown adequate improvement to at least two adequate courses of pharmacological therapy in the current episode of depression.

[2] = Clinical trial in healthy volunteers: 5-MeO-DMT and bufotenine plasma levels; type: in vivo, human; settings: human, plasma, inhaled, read-out: 5-MeO-DMT plasma levels, group median; for concentration at 1 h: 1 hour after administration; for concentration at 3 h: 3 hours after administration
Description: A clinical trial was performed in which 5-MeO-DMT free base (purity not less than 99%) at different dose levels was administered via inhalation (as described in Example 1) in a single day to healthy volunteers who had prior experiences with the use of synthetic or naturally-occurring psychedelics. The trial was reviewed and approved by the relevant national competent authority and local medical ethics committee. The trial consisted of two parts: Part A, where single doses of 5-MeO-DMT dosage amounts of 2 mg, 6 mg, 12 mg and 18 mg were administered; and Part B, where an initial 5-MeO-DMT dosage amount of 6 mg was administered, and then, unless the participant had already experienced a peak psychedelic experience based on the PPEQ or the supervising physician had decided that further dose increases were inappropriate based on observed side effects, further subsequent dosage amounts of 12 mg and 18 mg were administered with about 3 hours in between each administration. Participants in Part A only received one dose and were not allowed to receive higher doses in later parts of Part A and were not allowed to participate in Part B. Participants were closely monitored for 3.5 hours after the last dose, with additional follow-up visits 1 day and 7 days after dosing. Various safety related measures (e.g., adverse event reporting, safety laboratory analyses, vital signs, ECG, CADSS, PVT, DSST, Prospective Memory Task (PMT)) as well as measures of the intensity of the psychedelic effects (MEQ30, ASC, PPEQ, subjective description of the psychedelic experience) were recorded. Pharmacokinetic analysis of 5-MeO-DMT and bufotenine plasma levels was performed at 1 hour and 3 hours after drug administration in Part A, and at 3 hours after drug administration in Part B.

Question: Which results are given for `COc1ccc2[nH]cc(CCN(C)C)c2c1` [5-MeO-DMT, 5-methoxy-N,N-dimethyltryptamine]?
Answer: ECG, safety laboratory analyses, CADSS and cognitive tests (PVT, DSST) ([1]; ECG at 3 hours, laboratory at 3 hours and 7 days, CADSS at 3 hours, 1 day and 7 days, PVT, DSST at 1 day and 7 days): unremarkable; Reported adverse events ([1]; Patient 1, Administration day, mild, resolved spontaneously): Dizziness; Reported adverse events ([1]; Patient 1, Day 1, mild, resolved spontaneously): Headache, Flashback; Reported adverse events ([1]; Patient 1, Day 7, mild, resolved spontaneously): Headache; Reported adverse events ([1]; Patient 2, Administration day): None reported; Reported adverse events ([1]; Patient 2, Day 1, mild, resolved spontaneously): Headache; Reported adverse events ([1]; Patient 2, Day 7): None reported; changes in vital parameters ([1]; shortly after administration of 12 mg, both patients): temporary, not clinically relevant increase in heart rate and blood pressure; tolerability of the inhalation procedure ([1]; single dose of 12 mg via inhalation, both patients): well tolerated with no inhalation-related adverse events; concentration at 1 h ([2]; 2 mg, Part A 2 mg (n = 4), range 0.03-0.69): 0.38 ng/mL; concentration at 3 h ([2]; 2 mg, Part A 2 mg (n = 4), range 0.01-0.04): 0.03 ng/mL; concentration at 1 h ([2]; 6 mg, Part A 6 mg (n = 6), range 0.09-0.64): 0.33 ng/mL; concentration at 3 h ([2]; 6 mg, Part A 6 mg (n = 6), range 0.00-0.06): 0.02 ng/mL; concentration at 3 h ([2]; 6 mg, Part B 6 mg (n = 4), range 0.00-0.09): 0.01 ng/mL; concentration at 1 h ([2]; 12 mg, Part A 12 mg (n = 4), range 0.13-0.29): 0.19 ng/mL; concentration at 3 h ([2]; 12 mg, Part A 12 mg (n = 4), range 0.01-0.01): 0.01 ng/mL; concentration at 1 h ([2]; 18 mg, Part A 18 mg (n = 4), range 0.15-2.42): 0.65 ng/mL; concentration at 3 h ([2]; 18 mg, Part A 18 mg (n = 4), range 0.01-0.24): 0.04 ng/mL; concentration at 3 h ([2]; Part B 6 mg, 12 mg (n = 3), range 0.01-0.05): 0.03 ng/mL; concentration at 3 h ([2]; Part B 6 mg, 12 mg, 18 mg (n = 1), range 0.05-0.05): 0.05 ng/mL
